Experimental data reported in BindingDB's records for doi:10.1038/nchembio.481 (CGI Pharmaceuticals, 2011).

target: Tyrosine-protein kinase BTK (Homo sapiens, UniProt Q06187); assay: Btk Kinase Assay; settings: pH 7.5; 23 °C
Text: Biochemical assay using Lanthascreen (human, full-lenght, C-terminal v5-His6 expressed in Sf9 cell) assay from Invitrogen.

Tyrosine-protein kinase BTK, sequence (Q06187 whole entry): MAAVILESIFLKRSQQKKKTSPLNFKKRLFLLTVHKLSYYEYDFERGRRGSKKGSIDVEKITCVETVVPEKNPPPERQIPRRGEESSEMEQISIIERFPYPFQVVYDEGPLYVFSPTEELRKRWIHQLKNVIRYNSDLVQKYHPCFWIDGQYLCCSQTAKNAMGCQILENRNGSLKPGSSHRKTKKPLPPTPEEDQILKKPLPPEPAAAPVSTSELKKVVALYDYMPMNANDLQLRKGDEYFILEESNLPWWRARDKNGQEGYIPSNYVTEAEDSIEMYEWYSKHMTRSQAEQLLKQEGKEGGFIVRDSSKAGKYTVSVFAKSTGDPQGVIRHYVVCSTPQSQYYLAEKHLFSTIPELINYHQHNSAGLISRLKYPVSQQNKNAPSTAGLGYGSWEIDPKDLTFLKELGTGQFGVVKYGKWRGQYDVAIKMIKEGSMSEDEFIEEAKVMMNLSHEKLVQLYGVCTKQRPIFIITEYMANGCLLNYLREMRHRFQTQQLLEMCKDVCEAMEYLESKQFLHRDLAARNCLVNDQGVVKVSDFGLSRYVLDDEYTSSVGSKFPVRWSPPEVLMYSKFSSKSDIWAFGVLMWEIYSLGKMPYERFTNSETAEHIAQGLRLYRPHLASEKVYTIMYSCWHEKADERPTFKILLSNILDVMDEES

Row | SMILES | IC50
1 | Cc1c(NCc2ccc(C(C)(C)C)cc2)cccc1-c1cn(C)c(=O)c(Nc2ccc(C(=O)N3CCOCC3)cc2)n1 [5-(3-((4-(tert-Butyl)benzyl)amino)-2-methylphenyl)-1-methyl-3-((4-(morpholine-4-carbonyl)phenyl)amino)pyrazin-2(1H)-one, 5] | 9.06 µM
2 | CC(=O)Nc1cccc(-c2cn(C)c(=O)c(Nc3ccc(C(=O)N4CCOCC4)cc3)n2)c1C [CID46942382] | 2.69 µM
3 | Cc1c(NC(=O)c2cccc(C(C)(C)C)c2)cccc1-c1cn(C)c(=O)c(Nc2ccc(C(=O)N3CCOCC3)cc2)n1 [3-(tert-Butyl)-N-(2-methyl-3-(4-methyl-6-((4-(morpholine-4-carbonyl)phenyl)amino)-5-oxo-4,5-dihydropyrazin-2-yl)phenyl)benzamide, 6] | 3.14 µM
4 | Cc1c(N)cccc1-c1cn(C)c(=O)c(Nc2ccc(C(=O)N3CCOCC3)cc2)n1 [5-(3-Amino-2-methylphenyl)-1-methyl-3-((4-(morpholine-4-carbonyl)phenyl)amino)pyrazin-2(1H)-one, 3] | 5.44 µM
5 | Cc1c(NC(=O)c2ccc(C(C)(C)C)nc2)cccc1-c1cn(C)c(=O)c(Nc2ccc(C(=O)N3CCOCC3)cc2)n1 [6-(tert-Butyl)-N-(2-methyl-3-(4-methyl-6-((4-(morpholine-4-carbonyl)phenyl)amino)-5-oxo-4,5-dihydropyrazin-2-yl)phenyl)nicotinamide, 7] | 0.65 µM
